Measured values: patent US20230233567A1, “BELVARAFENIB FOR USE IN CANCER TREATMENT” (Hanmi Pharm. Co., Ltd., priority 2020, published 2023)
Where two headings read alike, the source gives them in different places.

Experiment: Phase I study plasma pharmacokinetics
Format: in vivo, human
Conditions: for AUC(0-inf) / AUC(0-t) / Cmax / AUC / Vd/F / Tmax: human, plasma, oral; for AUC: read-out: AUC24; for Vd/F: read-out: Vz/F; for Tmax: median, read-out: Tmax
Excerpt: The PK parameters of belvarafenib were estimated in 48 patients in the dose-escalation phase and 35 patients in the dose-expansion phase. In the tables: “AUClast” refers to the area under the plasma concentration-time curve from zero time until the last measurable concentration; “AUC0-∞” refers to area under the plasma concentration-time curve from zero time to infinity; “AUC24” refers to the area under the curve from T0 to T24; “Cmax” refers to the maximal concentration; “Tmax” refers to the time to reach Cmax; “T1/2β” refers to the terminal elimination half-life; “QD” refers to once a day; and “BID” refers to twice a day. […] Mean and coefficient of variation are presented except for Tmax where median and range are presented. One patient in the 200 QD dosing regimen who took concomitant rifampin was removed from the analysis because the AUC and Cmax of the patient were much lower than those of the others in the same cohort, which, without being bound to any particular theory, could have resulted from the drug-metabolizing enzyme induction by rifampin through which belvarafenib is biotransformed.

[1] = Day 1 first dose, 50 mg/day QD, n=3, mean
[2] = Day 1 first dose, 100 mg/day QD, n=3, mean
[3] = Day 1 first dose, 200 mg/day QD, n=6, mean
[4] = Day 1 first dose, 200 mg/day QD, n=7, mean
[5] = Day 1 first dose, 400 mg/day BID, n=11, mean
[6] = Day 1 first dose, 600 mg/day BID, n=7, mean
[7] = Day 1 first dose, 600 mg/day QD, n=6, mean
[8] = Day 1 first dose, 900 mg/day BID, n=8, mean
[9] = Day 1 first dose, 1300 mg/day BID, n=6, mean
[10] = Day 1 first dose, 1600 mg/day BID, n=6, mean
[11] = Multiple administrations Day 17, 50 mg/day QD, n=2, mean
[12] = Multiple administrations Day 22, 100 mg/day QD, n=3, mean
[13] = Multiple administrations Day 22, 200 mg/day QD, n=5, mean
[14] = Multiple administrations Day 22, 200 mg/day QD, n=6, mean
[15] = Multiple administrations Day 22, 400 mg/day BID, n=8, mean
[16] = 50 mg/day, Multiple administrations Day 17, 50 mg/day QD, n=2, mean
[17] = 100 mg/day, Multiple administrations Day 22, 100 mg/day QD, n=3, mean
[18] = 200 mg/day, Multiple administrations Day 22, 200 mg/day QD, n=5, mean
[19] = 200 mg/day, Multiple administrations Day 22, 200 mg/day QD, n=6, mean
[20] = 400 mg/day, Multiple administrations Day 22, 400 mg/day BID, n=8, mean
[21] = 600 mg/day, Multiple administrations Day 22, 600 mg/day BID, n=6, mean

Cc1ccc2c(Nc3cccc(Cl)c3F)nccc2c1NC(=O)c1csc2c(N)ncnc12 [Belvarafenib]
CL/F [1]: 2.5 L/h
T1/2β [1]: 51.6 h
CL/F [2]: 2.5 L/h
T1/2β [2]: 55.3 h
CL/F [3]: 7.3 L/h
T1/2β [3]: 57.7 h
CL/F [4]: 15.4 L/h
T1/2β [4]: 50.5 h
CL/F [5]: 7.8 L/h
T1/2β [5]: 70.7 h
CL/F [6]: 7.7 L/h
T1/2β [6]: 86.6 h
CL/F [7]: 9.9 L/h
T1/2β [7]: 58.9 h
CL/F [8]: 5.7 L/h
T1/2β [8]: 84.3 h
CL/F [9]: 9.0 L/h
T1/2β [9]: 77.4 h
CL/F [10]: 14.5 L/h
T1/2β [10]: 215.8 h
CL/F [11]: 0.6 L/h
T1/2β [11]: 70.7 h
CL/F [12]: 0.9 L/h
T1/2β [12]: 106.1 h
CL/F [13]: 1.3 L/h
T1/2β [13]: 69.8 h
CL/F [14]: 2.4 L/h
T1/2β [14]: 65.1 h
CL/F [15]: 3.3 L/h
T1/2β [15]: 41.2 h
T1/2β (Multiple administrations Day 22, 600 mg/day BID, n=6, mean): 52.3 h
CL/F (Multiple administrations Day 22, 600 mg/day BID, n=6, mean (CV)): 2.2 (63.3) L/h
T1/2β (Multiple administrations Day 22, 600 mg/day QD, n=6, mean): 97.7 h
CL/F (Multiple administrations Day 22, 600 mg/day QD, n=6, mean (CV)): 3.4 (81.8) L/h
T1/2β (Multiple administrations Day 22, 900 mg/day BID, n=7, mean): 32.3 h
CL/F (Multiple administrations Day 22, 900 mg/day BID, n=7, mean (CV)): 3.8 (50.7) L/h
T1/2β (Multiple administrations Day 22, 1300 mg/day BID, n=6, mean): 66.4 h
CL/F (Multiple administrations Day 22, 1300 mg/day BID, n=6, mean (CV)): 2.7 (54.7) L/h
T1/2β (Multiple administrations Day 22, 1600 mg/day BID, n=4, mean): 42.7 h
CL/F (Multiple administrations Day 22, 1600 mg/day BID, n=4, mean (CV)): 14.8 (61.2) L/h
mean plasma concentration versus dose (from 50 mg QD to 650 mg BID): linearity in a dose-proportional manner
AUC(0-inf) [16]: 88800 ng·h/mL
AUC(0-t) [16]: 18900 ng·h/mL
Cmax [16]: 1120 ng/mL
AUC [16]: 18900 ng·h/mL
Vd/F [16]: 57.6 L
Tmax (50 mg/day, Multiple administrations Day 17, 50 mg/day QD, n=2): 3 h
AUC(0-inf) [17]: 349000 ng·h/mL
AUC(0-t) [17]: 41900 ng·h/mL
Cmax [17]: 1990 ng/mL
AUC [17]: 42000 ng·h/mL
Vd/F [17]: 62.7 L
Tmax (100 mg/day, Multiple administrations Day 22, 100 mg/day QD, n=3): 5 h
AUC(0-inf) [18]: 239000 ng·h/mL
AUC(0-t) [18]: 48200 ng·h/mL
Cmax [18]: 2520 ng/mL
AUC [18]: 48200 ng·h/mL
Vd/F [18]: 116 L
Tmax (200 mg/day, Multiple administrations Day 22, 200 mg/day QD, n=5): 3.2 h
AUC(0-inf) [19]: 203000 ng·h/mL
AUC(0-t) [19]: 41600 ng·h/mL
Cmax [19]: 2210 ng/mL
AUC [19]: 41700 ng·h/mL
Vd/F [19]: 178 L
Tmax (200 mg/day, Multiple administrations Day 22, 200 mg/day QD, n=6): 3.1 h
AUC(0-inf) [20]: 207000 ng·h/mL
AUC(0-t) [20]: 67500 ng·h/mL
Cmax [20]: 3210 ng/mL
AUC [20]: 68900 ng·h/mL
Vd/F [20]: 157 L
Tmax (400 mg/day, Multiple administrations Day 22, 400 mg/day BID, n=8): 13.1 h
AUC(0-inf) [21]: 507000 ng·h/mL
AUC(0-t) [21]: 116000 ng·h/mL
Cmax [21]: 5700 ng/mL
AUC [21]: 120000 ng·h/mL
Vd/F [21]: 122 L
Tmax (600 mg/day, Multiple administrations Day 22, 600 mg/day BID, n=6): 3.4 h
